{"source": "patent US6011019A", "about": "“Vasoactive effects and free radical generation by β-amyloid peptides” (University of South Florida, priority 1996, dated 2000)", "key": {"[1]": {"test_system": "rat coronary arteries", "assay": "Rat coronary artery constriction and relaxation (U46619, acetylcholine)", "details": "for constriction of rat coronary artery by the peptide: 10^-6 M peptide", "method": "The effects of β-amyloid peptide were examined on samples of rat coronary arteries prepared as described above. Referring specifically to FIG. 1, rat coronary arteries were treated with β-amyloid peptide (Aβ40) causing constriction of the coronary arteries.\nFIG. 3 illustrates the effect of various amyloid fragments on the constriction of rat coronary arteries. Following control constriction with 10^-7 M U46619, the tissue samples were rinsed, equilibrated with buffer, and treated with 10^-6 M Aβ peptides for fifteen minutes. Following treatment with the Aβ peptides, the blood vessels were rinsed and again exposed to U46619. The values are expressed as percent of control constriction produced by U46619 alone.\nThe effect of pretreatment of coronary arteries with a single dose (10^-6 M) of A40 on acetylcholine induced relaxation is shown in FIG. 20. The blood vessel was preconstricted with 10^-7 M U46619 and relaxed with increasing doses of acetylcholine (10^-9 M to 10^-5 M)."}, "[2]": {"test_system": "human neuroblastoma cell line (BE(2)-M17)", "assay": "Aβ toxicity on BE(2)-M17 (trypan blue exclusion)", "type": "cell-based", "details": "same concentrations as HAEC cultures, up to day eight; data not shown", "source_text": "Trypan blue exclusion was used for the cell viability assay."}, "[3]": {"test_system": "rat aorta", "assay": "Enhancement of endothelin-1 (ET-1) induced vasoconstriction of rat aorta", "method": "Normal Sprague-Dawley rats were sacrificed by decapitation, and freshly dissected rat aorta was segmented into rings and suspended in Ringers buffer using a tensiometer linked to the MacLab system. Following a two hour equilibration period, the \"pretreatment\" contraction was carried out. The aortic rings were contracted using a range of doses of endothelin-1 and relaxed using a single odes of acetylcholing (Ach(10^-7 M)). […] The dose of each Aβ peptide was 1 μM, with the exception of Aβ25-35 (1 μM and 5 μM), and was added ten minutes prior to the first ET-1 dose. For SOD treatment we added 150 U/ml 30 seconds before the addition of Aβ.\nEndothelium was removed by gently passing a glass pipette, dipped in saline solution, through the lumen of the aortae several time, allowing the pipette to gently brush the endothelial surface. Endothelium was removed from the aortae prior to hanging in the tissue bath system. Both pre-and post treatment contractions involved a single does of ET-1 (5×10^-9 M).\n(§1) In all cases the mean difference in percentage contraction in the pre- and post-contractions (before and after addition of test compound respectively) was measured, and compared between the two. Endogenous production of ET-1 was measured using an ET-1 RIA kit (Peninsula Laboratories)."}, "[4]": {"test_system": "ET-1", "assay": "Endogenous ET-1 release, radioimmunoassay", "set-up": "species or system rat", "details": "competition with 125I-labeled ET-1", "method": "as §1\nTo investigate the possibility that Aβ releases endogenous stores of ET-1 a radioimmunoassay in which endogenous ET-1 released into the vessel buffer, would compete with ^125 I-labeled ET-1 for binding to a specific antibody was performed. […] In addition, to examine the role played by lipid peroxidation is in the vasoconstrictive mechanism, vessels were contracted in the presence of allopurinol, which inhibits the conversion of xanthine dehydrogenase to xanthine oxidase, preventing lipid peroxidation."}, "[5]": {"test_system": "Sprague-Dawley rats", "assay": "Morris water maze acquisition and memory retention during intravenous Aβ infusion", "type": "in vivo, rat", "details": "days 7-14", "experimental": "(§2) Eleven three month old male Sprague-Dawley rats (300-350 g) were anesthetized with sodium pentobarbital (50 mg/kg, ip.) and a polyethylene cannula was inserted into the right external jugular vein to approach or enter the right atrium. […] The remaining six animals served as controls by receiving twice daily intravenous infusions of vehicle solution. Treatments were continued for 14 days, with Morris water maze \"acquisition\" (learning) tested during days 7-13 and water maze memory retention evaluated on day 14. Daily acquisition testing consisted of four consecutive daily trials, wherein latency to reach the submerged platform in Quadrant 2(Q2) was determined and a daily average calculated. For the memory retention trial, the submerged platform was removed and animals were placed in the quadrant opposite Q2. The percentage of time spent in the quadrant formerly containing the platform (Q2) was used as a measure of memory retention. Acquisition data was analyzed using two-way ANOVA for repeated measures and retention data was analyzed with one-way ANOVA and Student's t-test."}, "[6]": {"test_system": "basilar artery", "assay": "Diameter of the basilar artery in living animals after Aβ infusion", "type": "in vivo, rat", "method": "In the experiments, the animals were infused twice daily for two weeks for an estimated final molarity of 0.5 μM. In the experiments, Aβ1-40 was used. The Aβ infused animals developed gross lung pathology. The lung capillary beds were the first to be reached by the venously infused Aβ. […] This is consistent with the conclusion that in Alzheimer's Disease, the cerebral vasculature could potentially be damaged and destroyed by circulating or locally produced Aβ."}, "[7]": {"test_system": "human aortic endothelial cel line (HAEC)", "experimental": "All these cells were maintained at 37° C., under an atmosphere containing 5% CO2. For the present experiments, HAEC and BE(2)-M17 were seeded at densities of 2×10^4 cells per well in 24-23ll clusters.\nThe experiments were terminated one half, one, two and three hours post treatment by detachment with Trypsin/EDTA solution and followed by a toxicity assay with trypan blue exclusion. In parallel experiments, cells were attached to a round Thermanox (Nunc) at the bottom of the well, and were stopped three to 24 hours post treatment by fixation with 4% neutral formalin solution which was followed by Hematoxylin-Eosin stain to show morphology.\nMorphological changes in cells were monitored throughout the course of the experiment with an inverse phase-contrast microscope. After termination of the experiments, the cells fixed on the Thermanox were subjected to routine Hematoxylin-Eosin (HE) stain. The morphological characteristics of toxic cells were observed under light microscope and typical results were recorded by photographs.\nFor approximate quantification of Aβ toxicity of HAEC, modified procedure for trypan blue exclusion was employed. In brief, the detached cells were resuspended with an appropriate volume of culture media, 20 μl of this cell suspension was mixed with an equivalent volume of 4% Trypan-blue solution thoroughly, and allowed to sit for two minutes after mixing. Approximately 9 μl of the mixture was transferred to a hemocytometer for cell counting. The cell viability was determined by the equation: [formula] In the case of severe toxicity, where some of the cells were lysed, the total cell numbers were adjusted by that of controls. In this experiment, counts for each sample were triplicated."}, "[8]": {"test_system": "Sprague-Dawley rats", "details": "rat, in vivo", "experimental": "as §2\nOn day 15, animals were anesthetized with sodium pentobarbital and transcardially perfused with 4% paraformaldehyde in 0.1M PBS (pH 7.4). Tissue samples from the lung, heart, kidney, liver and pancreas were collected and post-fixed in perfusate solution until histologic processing. Brains were removed and placed in perfusate for 24 hours, followed by cytoprotective storage in 30% sucrose until histologic processing. For all tissues 20 and 40 μm frozen sections were collected and stained with Mayer's Acid Hemalin followed by alkaline Congo red. Selected 20 μm brain sections were stained for glial fibrillary acidic protein (GFAP)."}}}
{"substance": "Aβ1-40: Soluble Aβ containing forty amino acids; supplied by RBI and/or MD Enterprise", "values": [{"measurement": "constriction of rat coronary artery by the peptide", "setting": "[1]", "result": "induce constriction of the coronary artery"}, {"measurement": "constriction of rat coronary artery by the peptide", "setting": "[1]; listed as Aβ", "result": "small but detectable contraction"}, {"measurement": "duration of constriction compared among fragments", "setting": "[1]; 10^-6 M peptides, real time recording", "result": "longest sustained constriction"}, {"measurement": "U46619 induced vasoconstriction following Aβ treatment", "setting": "[1]; 10^-7 M U46619 after 10^-6 M Aβ for fifteen minutes", "result": "significantly potentiated"}, {"measurement": "toxic effect on differentiated BE(2)-M17 cells", "setting": "[2]", "result": "not toxic effect was noticed"}, {"measurement": "effect of Aβ on the ET-A antagonist induced decrease of ET-1 contraction", "setting": "[3]", "result": "in part countered"}, {"measurement": "enhancement in aortae from older versus younger rats", "setting": "[3]", "result": "trend towards greater enhancement in older rats"}, {"measurement": "enhancement of ET-1 contraction", "setting": "[3]; peptide 1 μM (Aβ25-35 1 μM and 5 μM) ten minutes prior to first ET-1 dose", "result": "dramatically enhanced the contraction of rat aorta by ET-1"}, {"measurement": "enhancement of ET-1 contraction in the absence of endothelium", "setting": "[3]; single dose ET-1 5×10^-9 M", "result": "enhance contraction of rat aortae to an extent not significantly different from the enhancement observed in the presence of endothelium"}, {"measurement": "release of endogenous ET-1 into the vessel buffer", "setting": "[4]", "result": "did not indicate that any unlabelled ET-1 was present"}, {"measurement": "water maze acquisition and memory retention", "setting": "[5]", "result": "no different from that of vehicle-infused controls"}, {"measurement": "basilar artery diameter", "setting": "[6]", "result": "results in constriction of this artery"}, {"measurement": "cell viability at 32 μM", "setting": "[7]", "result": "significantly less cell viability compared to control"}, {"measurement": "cell viability at low concentrations", "setting": "[7]", "result": "not found to induce significant change of cell viability"}, {"measurement": "toxicity of several batches (RBI, MD, Sigma)", "setting": "[7]", "result": "almost non-toxic to HAEC"}, {"measurement": "Congo red birefringence in the brains", "setting": "[8]", "result": "no Congo red birefringence was observed"}, {"measurement": "perivascular gliosis in GFAP stained brain sections", "setting": "[8]", "result": "increased perivascular gliosis was evident"}, {"measurement": "severe vascular accidents in other peripheral tissues (kidney, pancreas, heart)", "setting": "[8]", "result": "not, however, typically seen"}]}
